According to patent publication US10307413B2, “Tetrahydro- and dihydro-isoquinoline PRMT5 inhibitors and uses thereof” (Epizyme, Inc., priority 2013, dated 2019):
Like-named read-outs stand apart in the source and are kept apart here.

Legend:
[1] = system: Z-138 cell line; assay: Z-138 Proliferation Assay (Cell Titer Glo, 5 days); type: cell-based; details: Homo sapiens, 120 h, Z-138 cells, 5 days, read-out: Proliferation EC50
Procedure, shortened: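 Z-138 cells exposed 5 days at 37 °C, 5% CO2 to nine-point 3-fold dilutions (final top 20 μM, 0.2% DMSO), in triplicate. Viability read as ATP by CellTiter-Glo luminescence; IC50 from 4-parameter fit of normalized dose-response curves.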

[2] = system: symmetric di-methyl arginine in Z-138 cells; assay: Z-138 Methylation Assay (In Cell Western for symmetric di-methyl arginine and DNA content); type: cell-based; details: Homo sapiens, read-out: ICW EC50
Procedure, shortened: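 Z-138 cells (50,000 cells/mL) treated with compound 96 h at 37 °C, then fixed and stained for symmetric di-methyl arginine (800 nm) with DRAQ5 DNA counterstain (700 nm) on Licor Odyssey.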

[3] = biological target: PRMT5/MEP50 (Homo sapiens (Human), UniProt O14744); assay: PRMT5 Biochemical Assay (PRMT5/MEP50 enzyme assay on peptide substrate, 3H-SAM Flashplate)
Procedure, shortened: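 Radiometric methylation of a biotin-tagged H4(1-15) peptide by human PRMT5/MEP50 from baculovirus/Sf9, with ³H-SAM incorporation read on streptavidin Flashplates. Buffer: Bicine pH 7.6, TCEP, BSG, Tween20; compound preincubated 30 min at 25 °C; stopped with 600 µM final unlabeled SAM. DMSO and SAH controls; IC50 from fitted % inhibition.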

Chain of PRMT5/MEP50 (O14744 other isoform, or with tags, fused parts or gaps): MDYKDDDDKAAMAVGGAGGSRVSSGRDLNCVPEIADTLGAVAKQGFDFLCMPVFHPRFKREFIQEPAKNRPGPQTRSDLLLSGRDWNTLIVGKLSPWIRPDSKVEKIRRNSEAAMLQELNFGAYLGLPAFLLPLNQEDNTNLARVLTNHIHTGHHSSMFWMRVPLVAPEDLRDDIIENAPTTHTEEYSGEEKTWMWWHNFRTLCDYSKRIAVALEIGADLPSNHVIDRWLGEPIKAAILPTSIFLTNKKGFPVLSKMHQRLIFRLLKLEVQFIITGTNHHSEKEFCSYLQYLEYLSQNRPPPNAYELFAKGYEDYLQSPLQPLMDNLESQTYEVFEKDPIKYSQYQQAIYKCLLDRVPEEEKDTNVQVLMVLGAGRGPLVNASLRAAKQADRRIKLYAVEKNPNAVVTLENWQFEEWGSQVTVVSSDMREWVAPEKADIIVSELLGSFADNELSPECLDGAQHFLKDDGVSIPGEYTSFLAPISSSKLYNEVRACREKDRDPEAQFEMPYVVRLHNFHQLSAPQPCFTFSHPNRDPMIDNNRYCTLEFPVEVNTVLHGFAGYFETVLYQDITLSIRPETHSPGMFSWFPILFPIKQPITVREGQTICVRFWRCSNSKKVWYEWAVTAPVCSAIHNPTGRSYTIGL
Chain of PRMT5/MEP50 (Q9BQA1 other isoform, or with tags, fused parts or gaps partner): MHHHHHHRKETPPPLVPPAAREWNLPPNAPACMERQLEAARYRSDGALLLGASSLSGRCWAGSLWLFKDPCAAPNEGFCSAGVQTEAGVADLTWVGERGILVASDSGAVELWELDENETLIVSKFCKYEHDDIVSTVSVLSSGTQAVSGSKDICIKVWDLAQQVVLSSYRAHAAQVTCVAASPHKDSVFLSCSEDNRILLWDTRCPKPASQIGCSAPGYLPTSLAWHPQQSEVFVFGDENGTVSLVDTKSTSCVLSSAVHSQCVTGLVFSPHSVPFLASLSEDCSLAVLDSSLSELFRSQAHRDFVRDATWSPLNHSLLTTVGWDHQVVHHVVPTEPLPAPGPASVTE

Structure (SMILES)	EC50 [2]	IC50 [3]	EC50 ([2]; In Cell Western methylation)	IC50 ([3]; PRMT5 biochemical assay)	EC50 [1]	EC50 ([1]; Cell Titer Glo)
O=C(NC[C@H](O)CN1CCc2ccccc2C1)c1ccnc(Nc2cccnc2)c1 [Compound 343]	< 100 nM	< 100 nM	–	–	< 100 nM	–
O=C(NC[C@H](O)CN1CCc2ccccc2C1)c1cncc(NC2COC2)n1 [Compound 366]	101 to 1000 nM	101 to 1000 nM	–	–	> 20000 nM	–
CC1(C)CC(Nc2cc(C(=O)NC[C@H](O)CN3CCc4ccccc4C3)ncn2)CC(C)(C)N1 [Compound 430]	–	–	101 to 1000 nM	< 100 nM	–	1000 to 10000 nM
Cc1cnc(NC2CN(S(C)(=O)=O)C2)cc1C(=O)NC[C@H](O)CN1CCc2ccccc2C1 [Compound 379]	< 100 nM	< 100 nM	–	–	1000 to 10000 nM	–
O=C(NC[C@H](O)CN1CCc2ccccc2C1)c1cc(NC2CCC2)nc(N2CCOCC2)c1 [Compound 349]	< 100 nM	< 100 nM	–	–	< 100 nM	–
COCCNCCOc1ccc2cc(C(=O)NC[C@H](O)CN3CCc4ccccc4C3)ccc2c1 [Compound 369]	< 100 nM	< 100 nM	–	–	1000 to 10000 nM	–
O=C(NC[C@H](O)CN1CCc2ccccc2C1)c1cc(NC2CNC2)nc(C(F)(F)F)n1 [Compound 456]	–	–	101 to 1000 nM	< 100 nM	–	101 to 1000 nM
O=C(NC[C@H](O)CN1CCc2ccccc2C1)c1cc(NC2COC2)nc(C(F)(F)F)n1 [Compound 405]	–	–	< 100 nM	< 100 nM	–	101 to 1000 nM
COCCN(C)c1nc(NC2COC2)cc(C(=O)NC[C@H](O)CN2CCc3ccccc3C2)n1 [Compound 460]	–	–	< 100 nM	< 100 nM	–	< 100 nM
CN(C)[C@H]1C[C@H](Nc2cc(C(=O)NC[C@H](O)CN3CCc4ccccc4C3)ncn2)C1 [Compound 376]	< 100 nM	< 100 nM	–	–	1000 to 10000 nM	–
CC(C)C(=O)N1CC(Nc2cc(C(=O)NC[C@H](O)CN3CCc4ccccc4C3)ccn2)C1 [Compound 489]	–	–	< 100 nM	< 100 nM	–	< 100 nM
CN(c1cc(C(=O)NC[C@H](O)CN2CCc3ccccc3C2)ncn1)C1COC1 [Compound 448]	–	–	> 1000 nM	< 100 nM	–	> 20000 nM
CN(C)C(=O)[C@H]1C[C@@H](Nc2cc(C(=O)NC[C@H](O)CN3CCc4ccccc4C3)ncn2)C1 [Compound 515]	–	–	< 100 nM	< 100 nM	–	101 to 1000 nM

Continued, in another order:

EC50 [2]	IC50 [3]	EC50 ([2]; In Cell Western methylation)	IC50 ([3]; PRMT5 biochemical assay)	Structure (SMILES)	EC50 [1]	EC50 ([1]; Cell Titer Glo)
–	–	< 100 nM	< 100 nM	O=C(NC[C@H](O)CN1CCc2ccccc2C1)c1cc(N[C@H]2C[C@H](N3CCOCC3)C2)ncn1 [Compound 558]	–	101 to 1000 nM
–	–	< 100 nM	< 100 nM	Cc1cnc(NC2CCN(CC(F)(F)F)C2)cc1C(=O)NC[C@H](O)CN1CCc2ccccc2C1 (stereo partly drawn) [Compound 402]	–	1000 to 10000 nM
–	–	< 100 nM	< 100 nM	CC(=O)N1CCN(c2nc(NC3CNC3)cc(C(=O)NC[C@H](O)CN3CCc4ccccc4C3)n2)CC1 [Compound 483]	–	1000 to 10000 nM
–	–	< 100 nM	< 100 nM	CC(=O)N1CC(Nc2cc(C(=O)NC[C@H](O)CN3CCc4ccccc4C3)nc(N3CCCCC3)n2)C1 [Compound 441]	–	< 100 nM
–	–	< 100 nM	< 100 nM	O=C(NC[C@H](O)CN1CCc2ccccc2C1)c1cc(N[C@H]2C[C@H](O)C2)ncn1 [Compound 521]	–	101 to 1000 nM
–	–	< 100 nM	< 100 nM	CC(=O)N1CCC(Nc2cc(C(=O)NC[C@H](O)CN3CCc4ccccc4C3)nc(N(C)C)c2)CC1 [Compound 685]	–	101 to 1000 nM
–	–	< 100 nM	< 100 nM	CC(C)(C)c1nc(NC2COC2)cc(C(=O)NC[C@H](O)CN2CCc3ccccc3C2)n1 [Compound 527]	–	101 to 1000 nM
–	–	< 100 nM	< 100 nM	O=C(NC[C@H](O)CN1CCc2ccccc2C1)c1cc(N[C@H]2C[C@H](C(=O)N3CCC3)C2)ncn1 [Compound 509]	–	< 100 nM
–	–	< 100 nM	< 100 nM	CC(=O)N1CCC(Nc2cc(C(=O)NC[C@H](O)CN3CCc4c(C)cccc4C3)ncn2)CC1 [Compound 677]	–	1000 to 10000 nM
